Measurements as given in patent US20240410898A1, “METHOD FOR DETECTING PROTEIN HAVING CHANGES IN ENERGY STATE, OR AFFINITY OF LIGAND TO PROTEIN” (DALIAN INSTITUTE OF CHEMICAL PHYSICS, CHINESE ACADEMY OF …, priority 2022, published 2024).

Key:
[1] = biological target: T1, ERBB2 (Homo sapiens, UniProt P04626); details: cited from earlier work
[2] = tested on: CHEK2, SLK, RIPK2, and YES1; assay: PELSA, lapatinib-treated BT474 cell lysate, off-target kinases; assay type: binding; details: increased lapatinib concentration (1 μM and above)
[3] = biological target: T2, PTGES2 (Homo sapiens, UniProt Q9H7Z7); assay: Western blotting of undigested PTGES2 after trypsin digestion; assay type: binding; design: collect the supernatant as the cell lysate; endogenous in cells; host or cells: BT474 cell lysate
Method: To validate the binding of PTGES2 and lapatinib, we performed Western blotting using a similar procedure and conditions as mentioned above, with the following modifications: The lysis buffer is PBS. After lysis, the resulting cell lysates were divided into 8 portions and treated with equal volumes of lapatinib at different final concentrations (lapatinib dissolved in DMSO), as well as DMSO, resulting in final lapatinib concentrations of 100 μM, 50 μM, 10 μM, 1 μM, 0.1 μM, 0.01 μM, 0.001 μM, and 0. The mixtures were incubated at room temperature (25° C.) for 30 minutes. After incubation, trypsin was added at a 1:40 protease-to-protein weight ratio, and the mixture was subjected to digestion at 37° C. for 1 minute. The digestion was terminated by heating the samples to 95° C., followed by the addition of ¼ volume of 5*loading buffer, and heating at 95° C. for another 5 minutes. Western blotting was employed to detect the undigested proteins. The gel was concentrated at 80 V for 20 minutes, and then separated at 120 V for 60 minutes. Transfer blotting was conducted at a constant current of 250 mA for 40 minutes. After blocking, the primary antibody against PTGES2 (Proteintech, USA) was added at a 1:800 dilution and incubated at room temperature for 1 hour. […] The undigested protein bands were quantified based on their intensities, using GAPDH as a reference protein. […]

[4] = biological target: T1, ERBB2; assay: PELSA, lapatinib-treated BT474 cell lysate; assay type: binding
[5] = biological target: T2, PTGES2; assay: PELSA, lapatinib-treated BT474 cell lysate, non-kinase off-target; details: high concentrations of lapatinib
Method: (1) Take a dish of BT474 cells (approximately 5e7 cells) and resuspend them in 1 mL lysis buffer (PBS supplemented with 1% (v/v) protease inhibitor (Sigma, catalog number P8340-5 mL)). Freeze-thaw the mixture three times (freeze in liquid nitrogen for two minutes, thaw in a 37° C. water bath for two minutes, repeat three times) to obtain crude cell lysates. Centrifuge the crude cell lysates at 500 g, 4° C. for 10 minutes, and collect the supernatant as the cell lysate. Determine the protein concentration using the Pierce™ 660 nm Protein Assay (Thermo, USA).
(2) Adjust the protein concentration of the cell lysate to 1 mg/mL using cell lysis buffer. […]
(6) The above-mentioned peptide mixture was reconstituted in 20 μL of 0.1% (v/v) formic acid (Sigma, Catalog No. V900803) and subjected to LC-MS/MS analysis. Each sample was analyzed once using data-independent acquisition (DIA) mass spectrometry. The Spectronaut software was used to identify and quantify the peptides, providing information on the corresponding protein, the peptide's location within the protein, and its abundance in each sample.
(7) The abundance of peptides in the lapatinib-treated and untreated groups was statistically evaluated using Empirical Bayes t-test to determine the P-value and fold change for each peptide, representing the significance and magnitude of the peptide's abundance change upon lapatinib treatment. […]

[6] = tested on: proteins of Escherichia coli; details: Piazza I et al., Cell, 2018; cited from earlier work
[7] = tested on: proteins containing the SH2 domain; assay: pulldown experiment with Biotin-pYEEI, BT474 cell lysate; assay type: binding; details: 100 μM Biotin-pYEEI
Method: The pulldown experiment was conducted as follows: The cell lysate is from BT474 cells, and the cell lysis was performed as described in Example 1. […] Two additional 100 μL samples were treated with Biotin-pSEEI at a final concentration of 100 μM and Biotin-YEEI at a final concentration of 100 μM, respectively, serving as control groups. This process was repeated three times, and the samples were incubated with ligands at room temperature for 30 minutes. After incubation, 200 μL of avidin beads (Thermo, USA) were added to each group and incubated overnight at 4° C. Subsequently, the beads were washed four times with a washing buffer (1% phosphatase inhibitor, and 0.5% NP40 in PBS), followed by four washes with a cell lysis buffer (1% phosphatase inhibitor in PBS solution). The proteins were eluted by adding 100 μL of HEPES buffer (pH 8.2) containing 8M guanidine hydrochloride, and the elution step was repeated twice. The eluted proteins were alkylated by adding 10 mM TCEP and 40 mM CAA, followed by heating at 95° C. for 5 minutes. The eluted protein solution was transferred to an ultrafiltration unit and centrifuged at 14,000 g for 30 minutes to remove the buffer. The ultrafiltration membrane was washed twice with 200 μL of a 10 mM ammonium bicarbonate (NH4HCO3) buffer. […]

[8] = tested on: metal ion-binding proteins in HeLa cell lysate; assay: PELSA, zinc chloride-treated HeLa cell lysate; details: −log 10Pvalue>6 and log 2FC>0
[9] = tested on: metal ion-binding proteins in HeLa cell lysate; assay: PELSA, zinc chloride-treated HeLa cell lysate; details: 30 μM zinc chloride
Method: After cell lysis following the procedure described in Example 1, the added EDTA was removed using Zeba Spin desalting columns (Thermo Fisher Scientific) through two rounds of protein desalting. A final concentration of 30 μM zinc chloride (Sigma, catalog number 450111-10G) was added to the 50 μL cell lysate, serving as the experimental group. Proteins meeting the criteria of −log 10Pvalue>3 and log 2FC<−0.5 were considered as proteins stabilized by Zn2+.

[10] = biological target: PTPN11 (Homo sapiens, UniProt Q06124); assay: PELSA compared with LiP-MS, SHP099-treated HeLa cell lysate; assay type: binding
[11] = tested on: kinases in HeLa cell lysates; details: kinase proportion ≥80%; cited from earlier work
[12] = tested on: kinases in K562 cell lysates; details: cited from earlier work
[13] = tested on: kinases in HeLa cell lysate; details: 20 μM staurosporine
Excerpt: (§3) We further compared the protein and peptide coverage depths of LiP-Quant, TPP, and PELSA.

[14] = tested on: kinases in K562 and HeLa lysates
Excerpt: as §3

[15] = tested on: kinases in K562 cell lysate; assay: PELSA, staurosporine-treated K562 cell lysate; assay type: binding; details: 20 μM staurosporine
Excerpt: as §3

[16] = biological target: T3, AKR1C2 (Homo sapiens, UniProt P52895); assay: thermal shift assay with purified AKR1C2; assay type: binding; details: purified protein
T3 construct: made in house
T3 sequence (P52895 1-323): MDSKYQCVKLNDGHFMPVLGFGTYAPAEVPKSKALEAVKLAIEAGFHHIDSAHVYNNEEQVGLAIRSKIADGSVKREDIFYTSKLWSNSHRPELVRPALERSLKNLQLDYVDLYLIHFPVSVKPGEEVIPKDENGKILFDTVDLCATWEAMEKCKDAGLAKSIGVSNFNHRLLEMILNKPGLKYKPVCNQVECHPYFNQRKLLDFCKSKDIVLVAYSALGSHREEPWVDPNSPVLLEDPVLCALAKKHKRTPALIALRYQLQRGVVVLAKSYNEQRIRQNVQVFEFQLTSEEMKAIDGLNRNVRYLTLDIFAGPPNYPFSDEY
Excerpt: (§1) HSP90 proteins consist of three domains: the N-terminal ATP-binding domain, the middle domain, and the C-terminal domain. […] This finding further supports the capability of PELSA to accurately identify protein regions with changes in energy state. In addition to known target proteins, PELSA also identified several off-target proteins. […] PRDX family proteins play a protective role by clearing ROS under oxidative stress conditions.

[17] = tested on: MAT2A and AKR1C2; assay: dimethyl labeling-based PELSA, MAT2A and AKR1C2; assay type: binding; details: 100 μM
[18] = biological target: T4, MAT2A (Homo sapiens, UniProt P31153); assay: thermal shift assay with purified MAT2A; assay type: binding; details: purified protein
T4 construct: made in house
Excerpt: as §1

[19] = tested on: PPIP5K1 and PPIP5K2; assay: PELSA, leucine-treated K562 cell lysate, PPIP5K1/2; assay type: binding; details: 5 mM leucine, histidine phosphatase domains
Excerpt: (§2) These findings indicate the ability of PELSA to differentiate between distinct binding sites on a single protein. […] SLC1A5 is a membrane protein comprising intracellular, transmembrane, and extracellular regions. The Na-dicarboxylate_symporter domain (residues 54-483), located in the extracellular region, plays a key role in amino acid transport.

[20] = biological target: LARS1 (Homo sapiens, UniProt Q9P2J5); details: Kim S, et al., Cell Reports, 2021; read-out: dissociation constant, leucine-LARS1; cited from earlier work
[21] = biological target: T5, SLC1A5 (Homo sapiens, UniProt Q15758); assay: PELSA, leucine-treated K562 cell lysate, SLC1A5; assay type: binding; details: 5 mM leucine
T5 construct: Protein-level volcano plot corresponding to 5 mM leucine-treated K562 cell lysates; endogenous in cells; host or cells: K562 cell lysate
T5 sequence (Q15758 1-541): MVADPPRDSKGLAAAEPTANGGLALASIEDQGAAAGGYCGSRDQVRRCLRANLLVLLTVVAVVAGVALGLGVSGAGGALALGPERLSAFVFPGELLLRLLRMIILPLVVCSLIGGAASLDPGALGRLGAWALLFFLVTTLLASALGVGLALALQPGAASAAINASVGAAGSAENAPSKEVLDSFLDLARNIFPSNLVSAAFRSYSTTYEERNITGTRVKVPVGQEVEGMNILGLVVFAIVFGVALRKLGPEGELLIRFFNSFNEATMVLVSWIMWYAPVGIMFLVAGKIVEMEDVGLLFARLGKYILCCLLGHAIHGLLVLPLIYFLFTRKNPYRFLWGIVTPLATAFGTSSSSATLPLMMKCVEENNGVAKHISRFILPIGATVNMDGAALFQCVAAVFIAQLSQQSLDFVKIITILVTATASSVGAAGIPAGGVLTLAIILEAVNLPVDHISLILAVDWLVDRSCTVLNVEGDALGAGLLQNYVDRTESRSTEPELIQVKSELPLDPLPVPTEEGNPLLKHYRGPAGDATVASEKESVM
Excerpt: as §2

[22] = tested on: LARS1, LARS2, GLUD1, and SENS2; assay: PELSA, leucine-treated K562 cell lysate, known targets; assay type: binding; details: 5 mM leucine
Excerpt: as §2

T2 sequence (Q9H7Z7 whole entry): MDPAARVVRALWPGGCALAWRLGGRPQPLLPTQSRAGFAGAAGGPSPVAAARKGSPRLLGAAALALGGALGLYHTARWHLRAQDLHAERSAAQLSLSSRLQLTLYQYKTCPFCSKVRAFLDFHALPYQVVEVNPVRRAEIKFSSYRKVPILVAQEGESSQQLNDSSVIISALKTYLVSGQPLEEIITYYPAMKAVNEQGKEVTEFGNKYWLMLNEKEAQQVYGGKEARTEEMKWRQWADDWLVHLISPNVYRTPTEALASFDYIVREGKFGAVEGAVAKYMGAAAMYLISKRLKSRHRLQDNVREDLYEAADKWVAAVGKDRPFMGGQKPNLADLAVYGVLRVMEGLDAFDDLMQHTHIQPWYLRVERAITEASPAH
T1 sequence (P04626 23-1255): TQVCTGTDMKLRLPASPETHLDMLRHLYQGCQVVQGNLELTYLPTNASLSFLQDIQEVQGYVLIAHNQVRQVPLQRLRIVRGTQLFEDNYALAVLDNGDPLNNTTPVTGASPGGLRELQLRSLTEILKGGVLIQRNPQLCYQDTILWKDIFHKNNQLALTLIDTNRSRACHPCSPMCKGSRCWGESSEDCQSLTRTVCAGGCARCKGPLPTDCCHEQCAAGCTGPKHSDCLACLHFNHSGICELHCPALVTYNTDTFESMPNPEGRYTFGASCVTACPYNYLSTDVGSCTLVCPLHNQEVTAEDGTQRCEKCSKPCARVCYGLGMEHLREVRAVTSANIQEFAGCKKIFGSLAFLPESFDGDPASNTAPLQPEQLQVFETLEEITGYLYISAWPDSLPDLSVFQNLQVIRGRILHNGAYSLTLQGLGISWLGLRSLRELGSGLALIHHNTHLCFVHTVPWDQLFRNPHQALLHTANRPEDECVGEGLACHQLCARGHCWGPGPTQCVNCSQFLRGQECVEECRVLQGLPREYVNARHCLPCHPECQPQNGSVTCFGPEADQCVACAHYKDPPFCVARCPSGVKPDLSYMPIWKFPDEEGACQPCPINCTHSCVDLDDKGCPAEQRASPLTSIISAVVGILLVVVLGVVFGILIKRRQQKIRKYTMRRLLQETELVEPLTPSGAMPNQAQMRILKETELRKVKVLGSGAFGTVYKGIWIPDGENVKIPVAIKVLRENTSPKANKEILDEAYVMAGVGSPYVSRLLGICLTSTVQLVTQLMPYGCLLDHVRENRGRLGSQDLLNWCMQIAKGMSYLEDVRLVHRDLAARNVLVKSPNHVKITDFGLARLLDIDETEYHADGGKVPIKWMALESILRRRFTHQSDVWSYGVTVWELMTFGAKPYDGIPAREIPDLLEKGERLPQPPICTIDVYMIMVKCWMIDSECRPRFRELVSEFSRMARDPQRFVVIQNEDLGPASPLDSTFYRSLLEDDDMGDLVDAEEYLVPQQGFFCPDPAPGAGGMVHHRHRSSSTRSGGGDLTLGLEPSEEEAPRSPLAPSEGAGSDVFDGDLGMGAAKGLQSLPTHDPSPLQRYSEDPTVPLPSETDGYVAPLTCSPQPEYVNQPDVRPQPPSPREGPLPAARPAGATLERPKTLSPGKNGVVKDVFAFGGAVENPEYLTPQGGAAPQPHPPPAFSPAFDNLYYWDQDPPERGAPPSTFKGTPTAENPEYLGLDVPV
T4 sequence (P31153 whole entry): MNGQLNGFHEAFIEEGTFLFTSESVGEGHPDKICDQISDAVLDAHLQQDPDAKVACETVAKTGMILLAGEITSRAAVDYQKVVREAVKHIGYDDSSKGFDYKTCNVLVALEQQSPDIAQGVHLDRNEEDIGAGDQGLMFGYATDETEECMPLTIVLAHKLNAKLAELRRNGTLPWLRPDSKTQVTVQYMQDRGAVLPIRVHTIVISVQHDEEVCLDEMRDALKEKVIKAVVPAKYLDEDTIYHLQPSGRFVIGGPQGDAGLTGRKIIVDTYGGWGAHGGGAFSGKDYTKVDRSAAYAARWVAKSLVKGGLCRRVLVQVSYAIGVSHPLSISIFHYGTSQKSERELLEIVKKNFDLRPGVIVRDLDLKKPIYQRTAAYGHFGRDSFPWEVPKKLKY
Sequence of LARS1 (Q9P2J5 whole entry, species assumed): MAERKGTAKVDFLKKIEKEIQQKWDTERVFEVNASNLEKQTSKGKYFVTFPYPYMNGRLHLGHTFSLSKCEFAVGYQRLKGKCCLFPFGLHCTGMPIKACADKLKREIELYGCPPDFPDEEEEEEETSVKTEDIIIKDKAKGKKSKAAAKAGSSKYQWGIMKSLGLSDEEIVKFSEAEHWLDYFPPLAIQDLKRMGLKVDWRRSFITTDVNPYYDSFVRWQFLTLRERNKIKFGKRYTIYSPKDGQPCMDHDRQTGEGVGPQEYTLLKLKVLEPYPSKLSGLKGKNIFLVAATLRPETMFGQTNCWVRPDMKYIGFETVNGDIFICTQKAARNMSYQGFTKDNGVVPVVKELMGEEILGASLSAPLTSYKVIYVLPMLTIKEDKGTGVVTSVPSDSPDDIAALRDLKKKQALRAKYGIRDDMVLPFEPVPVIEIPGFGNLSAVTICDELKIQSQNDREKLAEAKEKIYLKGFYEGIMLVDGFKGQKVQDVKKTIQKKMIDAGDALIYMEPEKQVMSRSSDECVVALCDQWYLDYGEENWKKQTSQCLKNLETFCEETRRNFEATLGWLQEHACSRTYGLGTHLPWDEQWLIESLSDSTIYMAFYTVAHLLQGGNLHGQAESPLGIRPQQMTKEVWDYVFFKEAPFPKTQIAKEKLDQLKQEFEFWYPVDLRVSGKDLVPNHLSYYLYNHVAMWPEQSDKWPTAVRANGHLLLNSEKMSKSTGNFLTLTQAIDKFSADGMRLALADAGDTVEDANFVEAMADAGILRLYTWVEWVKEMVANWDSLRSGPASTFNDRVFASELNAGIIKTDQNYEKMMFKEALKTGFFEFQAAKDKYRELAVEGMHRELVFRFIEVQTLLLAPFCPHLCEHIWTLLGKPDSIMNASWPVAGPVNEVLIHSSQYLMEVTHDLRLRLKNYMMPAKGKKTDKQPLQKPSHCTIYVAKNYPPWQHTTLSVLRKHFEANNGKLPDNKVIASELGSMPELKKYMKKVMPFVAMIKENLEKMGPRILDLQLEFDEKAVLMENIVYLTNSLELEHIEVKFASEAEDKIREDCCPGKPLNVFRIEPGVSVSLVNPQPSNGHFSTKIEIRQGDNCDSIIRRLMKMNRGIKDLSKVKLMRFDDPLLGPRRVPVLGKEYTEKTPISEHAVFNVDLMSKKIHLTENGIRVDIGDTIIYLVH

CS(=O)(=O)CCNCc1ccc(-c2ccc3ncnc(Nc4ccc(OCc5cccc(F)c5)c(Cl)c4)c3c2)o1 [lapatinib]
affinity of lapatinib to ERBB2 [1]: approximately 9 nM | energy state changes of other kinases [2]: energy state changes in several other kinases such as CHEK2, SLK, RIPK2, and YES1 | lapatinib concentration at which maximum PTGES2 protection was reached ([3]; Western blotting): 50 µM | PTGES2 protected from digestion (Western blot band intensity) ([3]; lapatinib 0.001-100 μM, trypsin 1:40, 37° C. 1 minute): increasing amount of PTGES2 protein protected from digestion | location of significantly altered ERBB2 peptides ([4]; 100 nM lapatinib, |log 2(fold change)|>0.3 & −log 10(P value)>2): only within or in close proximity to the kinase domain | resistance to proteolysis of peptides within the kinase domain of ERBB2 ([4]; lapatinib 100 μM, 10 μM and 1 μM): more resistant to proteolysis | energy state change of PTGES2 [5]: exhibited changes in its energy state

alpha-ketoglutarate [αKG]
previously known αKG-binding proteins among LiP-MS targets [6]: 2 | target proteins identified by LiP-MS [6]: 34

Phosphorylated tyrosine-glutamate-glutamate-isoleucine [pYEEI]
SH2 domain proteins determined as pYEEI-binding proteins in pulldown [7]: none of the proteins containing the SH2 domain was determined as pYEEI-binding proteins

[Cl-].[Cl-].[Zn+2] [Zn2+, zinc chloride]
stability of proteins containing IQ motifs [8]: destabilization in several proteins containing IQ motifs | Zn2+-binding proteins containing zinc finger motifs [9]: 60 | stability of 26S proteasome regulatory subunits PSMC1-6 [9]: destabilization in the components of the 26S proteasome regulatory subunits | stabilized Zn2+-binding proteins [9]: 112 | stabilized known Ca2+-binding proteins [9]: 25 | stabilized known Fe2+-binding proteins [9]: 15 | stabilized known Mg2+-binding proteins [9]: 20 | stabilized known Mn2+-binding proteins [9]: 9 | stabilized known binding proteins of other metal ions [9]: 6 | stabilized proteins that are known binding proteins of other metal ions [9]: 73 | stabilized proteins that are known metal ion-binding proteins [9]: 185 | number of proteins stabilized by Zn2+ ([9]; −log 10Pvalue>3 and log 2FC<−0.5): 280 | proportion of known metal ion-binding proteins among stabilized proteins ([9]; 19% in entire identified proteome): more than 66%

SHP099
fold change of PTPN11 peptide at the SHP099-binding site ([10]; 10 μM SHP099): exhibited fold changes exclusively in PELSA experiments | number of SHP099-responsive PTPN11 peptides, PELSA relative to LiP-MS ([10]; 10 μM SHP099, HeLa cell lysate): 5.25 times | response magnitude of PTPN11 peptides to SHP099, PELSA relative to LiP-MS ([10]; 10 μM SHP099, HeLa cell lysate): 6.4 times

CN[C@@H]1C[C@H]2O[C@@](C)([C@@H]1OC)n1c3ccccc3c3c4c(c5c6ccccc6n2c5c31)C(=O)NC4 [staurosporine]
number of kinase targets identified by LiP-Quant [11]: 9 | number of kinase targets identified by TPP [12]: 53 | total number of target proteins identified by TPP [12]: 60 | total number of target proteins identified [13]: 135 | proportion of kinases among all target proteins ([14]; K562 and HeLa): 80% | total staurosporine target proteins in the two cell lines ([14]; K562 and HeLa): 192 | significantly changed peptides located within or within 10 residues of kinase domains ([14]; both K562 and HeLa lysates): over 92% | total number of target proteins identified [15]: 143

CC(C)c1cc(-c2n[nH]c(=O)n2-c2ccc3c(ccn3C)c2)c(O)cc1O [ganetespib]
thermal melting temperature / stabilization of AKR1C2 [16]: significantly increased | off-target proteins MAT2A and AKR1C2 [17]: two previously-unreported off-target proteins of ganetespib, namely MAT2A and AKR1C2 | thermal melting temperature of MAT2A [18]: significantly increased

CC(C)C[C@H](N)C(=O)O [leucine]
stabilization of PPIP5K1 and PPIP5K2 [19]: stabilized PPIP5K1 and PPIP5K2 | Kd [20]: 95 µM | energy state change of SLC1A5 [21]: significant changes in the energy state of SLC1A5 | energy state changes of LARS1, LARS2, GLUD1, SENS2 [22]: significant changes in the energy states
